How the values were obtained:
[1] = tested on: murine keratinocyte cell line PE; assay: Growth inhibition of PE cells (MTT assay); format: cell-based; conditions: murine keratinocytes, FIGS. 1-9
Procedure: To determine the inhibitory effect of the trioxane dimers of the present invention on cell proliferation, screening assays were performed on a murine keratinocyte cell line PE. […] PE cell culture medium consisted of Eagle's minimal essential medium without calcium chloride (Whittaker Bioproducts, Walkersville, Ma.) supplemented with 8% chelexed fetal calf serum and 1% antibiotic-antimycotic (Gibco BRL) and the addition of CaCl2 to 0.05 mM Ca^++. […] (St. Louis, Mo.), and TPA was supplied by L. C. Services (Woburn, Ma.). L-[^14C]ornithine ([…]) was from Amersham/Searle Corp. (Arlington Heights, Ill.). Chemical solvents used in all assays of biological activity were of the highest grade commercially available. Growth Inhibition. […] A mitochondrial dehydrogenase reduces MTT to a blue formazan product with an absorbance maximum of 505 nm in DMSO; the number of viable cells can thus be determined spectrophotometrically. PE cells were seeded at a density of 5,000 cells/well in 50 μL of medium into 96-well microtiter plates. […] The plates were fed once at 48 h, with the readdition of the vitamin D3 analogs at this time. […] After 4 h, the MTT was removed and DMSO added to dissolve the blue formazan dye. Using a microtiter plate reader, the […] was then determined and cell number calculated from blank-subtracted absorbance values.

[2] = tested on: murine keratinocyte cell line PE; assay: Viability of PE cells by trypan blue exclusion; format: cell-based; conditions: 96 h
P. berghei = conditions: Klayman 1985; cited from earlier work

Compound: COC1OC2(C)CCC3CCCC(CCOC(=O)CCCC(=O)OCCC4CCCC5CCC6(C)OOC45C(OC)O6)C31OO2 (stereo not drawn) [Compound 15, Trioxane Bis-ester Dimer]
- antiproliferative activity [1]: the most active

Compound: 4β-Hydroxymethyl Trioxane Terephthalate Dimer [Compound 24]
- antiproliferative activity [1]: significant antiproliferative activity

Compound: COC1OC2(C)CCC3CCCC(CCOP(=O)(OCCC4CCCC5CCC6(C)OOC45C(OC)O6)Oc4ccccc4)C31OO2 (stereo not drawn) [Compound 20, Bis-trioxane phosphate ester]
- antiproliferative activity [1]: Neither phosphate dimers 20, and 21 nor phosphonate dimer 22 has significant antiproliferative activity

Compound: C=C1/C(=C\C=C2/CCC[C@]3(C)[C@@H]([C@H](C)CCCC(C)(C)O)CC[C@@H]23)C[C@@H](O)C[C@@H]1O [calcitriol, 1α, 25-dihydroxyvitamin D3]
- viability of the cells [2]: identical to control cells

Compound: CC1=CO[C@@H]2O[C@]3(C)CC[C@H]4[C@H](C)CC[C@@H]1[C@@]24OO3 [III]
- activity against P. berghei-infected mice (P. berghei): inactive

Compound: COC1OC2(C)CCC3CCCC(CCOP(=O)(OC)OCCC4CCCC5CCC6(C)OOC45C(OC)O6)C31OO2 (stereo not drawn) [Compound 21, Bis-trioxane phosphate ester]
- antiproliferative activity [1]: Neither phosphate dimers 20, and 21 nor phosphonate dimer 22 has significant antiproliferative activity
